The results in this text go back to ChEMBL document CHEMBL6134888, “Challenging the "Undruggable"─Targeting STAT3 but Identifying Potent TrkA-Targeted Inhibitors” (J Med Chem, 2025).

For assay [1], the target named is T1, High affinity nerve growth factor receptor (Homo sapiens, UniProt P04629). The note with it: dose 100.0 nM.
Description: Inhibition of TRKA (unknown origin) at 100 nM relative to control
Assay [2] has as its target T1, High affinity nerve growth factor receptor. The note with it: dose 100.0 nM. This is another data set of the same source.
Description: Inhibition of TRKA (unknown origin) at 100 nM ScanElect kinase assay relative to control
Assay [3] addresses Signal transducer and activator of transcription 3 (Homo sapiens) (UniProt P40763). The assay can be described thus: Binding affinity to STAT3 (unknown origin) SH2 domain by FP assay.
The target is the same in assay [4]. The assay can be described thus: Induction of thermal stabilization of recombinant STAT3 (127 to 668 residues)(unknown origin) assessed as reduction in fluorescence intensity incubated for 3 hrs by SYPRO orange dye based DSF analysis. The note with it: dose 100.0 µM.
Assay [5] has the same target. The assay can be described thus: Induction of thermal stabilization of STAT3 (unknown origin) at 100 uM by thermal shift assay.
Assay [6] has the same target. The assay can be described thus: Induction of thermal stabilization of recombinant STAT3 (127 to 668 residues)(unknown origin) incubated for 3 hrs by SYPRO orange dye based DSF analysis. The note with it: dose 10-100 µM. (In general: In DSF a fluorescence change marks the thermal transition of the protein.)
Assay [7] shares this target. The assay can be described thus: Induction of thermal stabilization of recombinant STAT3 (127 to 668 residues)(unknown origin) assessed as change in melting temperature incubated for 3 hrs by SYPRO orange dye based DSF analysis.
The target of assay [8] is T1, High affinity nerve growth factor receptor. The note with it: dose 100.0 nM. This is another data set of the same source.
Description: Inhibition of TRKA (unknown origin) at 100 nM by Z-LYTE Kinase assay relative to control
Assay [9] has the same target. Particulars: dose 10.0 nM.
Description: Inhibition of TRKA (unknown origin) at 10 nM by Z-LYTE Kinase assay relative to control
The next assay relates to KM12. The assay can be described thus: cells. Particulars: Homo sapiens, KM12, 72 h.
Assay [10] has as its target Tyrosine-protein kinase JAK2 (Homo sapiens, UniProt O60674). The assay can be described thus: Inhibition of JAK2 (unknown origin) by Z-LYTE Kinase assay.
In the next assay the test system is LS174T. The assay can be described thus: Cytotoxicity against human LS174T cells assessed as effect on cell viability incubated for 72 hrs by resazurin based analysis. On the technique in general: Alamar Blue is a resazurin reagent that responds to reducing activity.
The subject of the next assay is MDA-MB-231. The assay can be described thus: Cytotoxicity against human MDA-MB-231 cells assessed as effect on cell viability incubated for 72 hrs by resazurin based analysis. Particulars: MDA-MB-231, 72 h.
Assay [11] deals with Proto-oncogene tyrosine-protein kinase Src (Homo sapiens, UniProt P12931). The assay can be described thus: Inhibition of SRC (unknown origin) by Z-LYTE Kinase assay.
The target in assay [12] is Signal transducer and activator of transcription 3 (Homo sapiens) (UniProt P40763). The assay can be described thus: Inhibition of STAT3 in oncostatin M-stimulated human U3A cells at 20 uM pretreated with compound for 1 hr followed by oncostatin M induction and measured after 6 hrs by luciferase assay relative to control. It counts as cell-based.
In assay [13] the target is BDNF/NT-3 growth factors receptor (Homo sapiens, UniProt Q16620). The assay can be described thus: Binding affinity to TRKB (unknown origin) assessed as dissociation constant by KINOMEscan assay.
The target of assay [14] is L-lactate dehydrogenase A chain (Homo sapiens, UniProt P00338). The assay can be described thus: Inhibition of LDHA (unknown origin).

pIC50, pKd: −log10 of the molar value. Activity calls are given as the source filed them. The calls are words filed in the database; no cut-off is given here.

Signal transducer and activator of transcription 3 (Homo sapiens), sequence (P40763 whole entry, the tested form may be a part): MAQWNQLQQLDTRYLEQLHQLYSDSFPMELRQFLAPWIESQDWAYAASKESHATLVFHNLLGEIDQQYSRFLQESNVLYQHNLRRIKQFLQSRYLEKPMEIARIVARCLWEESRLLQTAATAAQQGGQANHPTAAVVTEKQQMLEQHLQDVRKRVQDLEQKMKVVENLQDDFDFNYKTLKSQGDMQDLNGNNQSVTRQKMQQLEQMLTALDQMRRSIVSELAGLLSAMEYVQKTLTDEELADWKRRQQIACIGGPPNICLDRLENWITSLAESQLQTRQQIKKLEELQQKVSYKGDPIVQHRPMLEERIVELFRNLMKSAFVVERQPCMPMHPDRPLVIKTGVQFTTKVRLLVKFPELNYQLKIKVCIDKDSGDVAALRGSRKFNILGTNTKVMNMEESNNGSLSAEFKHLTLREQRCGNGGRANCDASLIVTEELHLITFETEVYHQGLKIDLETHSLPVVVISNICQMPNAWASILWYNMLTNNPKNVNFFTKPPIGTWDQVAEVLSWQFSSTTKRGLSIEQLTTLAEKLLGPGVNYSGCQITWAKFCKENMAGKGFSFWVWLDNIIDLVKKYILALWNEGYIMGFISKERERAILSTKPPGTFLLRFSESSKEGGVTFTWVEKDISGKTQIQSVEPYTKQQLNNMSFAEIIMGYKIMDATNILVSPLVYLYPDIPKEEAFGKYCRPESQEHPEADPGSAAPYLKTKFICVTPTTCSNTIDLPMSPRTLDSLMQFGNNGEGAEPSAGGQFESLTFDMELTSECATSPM
T1 sequence (P04629 33-796 limits assumed): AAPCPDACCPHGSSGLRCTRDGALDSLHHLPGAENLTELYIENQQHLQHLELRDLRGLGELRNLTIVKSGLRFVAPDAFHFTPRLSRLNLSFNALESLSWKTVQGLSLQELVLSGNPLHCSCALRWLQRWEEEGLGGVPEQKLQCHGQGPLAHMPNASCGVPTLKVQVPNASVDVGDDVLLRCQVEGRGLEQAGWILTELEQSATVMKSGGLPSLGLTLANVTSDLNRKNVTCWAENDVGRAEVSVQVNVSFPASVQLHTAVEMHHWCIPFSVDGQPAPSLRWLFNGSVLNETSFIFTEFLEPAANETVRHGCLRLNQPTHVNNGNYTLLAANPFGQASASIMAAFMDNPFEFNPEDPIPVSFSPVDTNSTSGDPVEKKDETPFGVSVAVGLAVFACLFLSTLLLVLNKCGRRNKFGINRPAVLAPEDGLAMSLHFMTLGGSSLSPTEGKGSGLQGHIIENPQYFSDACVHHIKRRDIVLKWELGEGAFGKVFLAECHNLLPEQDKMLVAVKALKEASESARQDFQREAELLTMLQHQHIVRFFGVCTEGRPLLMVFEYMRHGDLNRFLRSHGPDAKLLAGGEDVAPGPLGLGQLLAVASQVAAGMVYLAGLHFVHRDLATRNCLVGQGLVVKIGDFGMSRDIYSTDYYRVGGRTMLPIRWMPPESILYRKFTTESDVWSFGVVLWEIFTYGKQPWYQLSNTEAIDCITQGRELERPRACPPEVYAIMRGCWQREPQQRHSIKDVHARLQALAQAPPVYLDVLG
Tyrosine-protein kinase JAK2, sequence (O60674 whole entry): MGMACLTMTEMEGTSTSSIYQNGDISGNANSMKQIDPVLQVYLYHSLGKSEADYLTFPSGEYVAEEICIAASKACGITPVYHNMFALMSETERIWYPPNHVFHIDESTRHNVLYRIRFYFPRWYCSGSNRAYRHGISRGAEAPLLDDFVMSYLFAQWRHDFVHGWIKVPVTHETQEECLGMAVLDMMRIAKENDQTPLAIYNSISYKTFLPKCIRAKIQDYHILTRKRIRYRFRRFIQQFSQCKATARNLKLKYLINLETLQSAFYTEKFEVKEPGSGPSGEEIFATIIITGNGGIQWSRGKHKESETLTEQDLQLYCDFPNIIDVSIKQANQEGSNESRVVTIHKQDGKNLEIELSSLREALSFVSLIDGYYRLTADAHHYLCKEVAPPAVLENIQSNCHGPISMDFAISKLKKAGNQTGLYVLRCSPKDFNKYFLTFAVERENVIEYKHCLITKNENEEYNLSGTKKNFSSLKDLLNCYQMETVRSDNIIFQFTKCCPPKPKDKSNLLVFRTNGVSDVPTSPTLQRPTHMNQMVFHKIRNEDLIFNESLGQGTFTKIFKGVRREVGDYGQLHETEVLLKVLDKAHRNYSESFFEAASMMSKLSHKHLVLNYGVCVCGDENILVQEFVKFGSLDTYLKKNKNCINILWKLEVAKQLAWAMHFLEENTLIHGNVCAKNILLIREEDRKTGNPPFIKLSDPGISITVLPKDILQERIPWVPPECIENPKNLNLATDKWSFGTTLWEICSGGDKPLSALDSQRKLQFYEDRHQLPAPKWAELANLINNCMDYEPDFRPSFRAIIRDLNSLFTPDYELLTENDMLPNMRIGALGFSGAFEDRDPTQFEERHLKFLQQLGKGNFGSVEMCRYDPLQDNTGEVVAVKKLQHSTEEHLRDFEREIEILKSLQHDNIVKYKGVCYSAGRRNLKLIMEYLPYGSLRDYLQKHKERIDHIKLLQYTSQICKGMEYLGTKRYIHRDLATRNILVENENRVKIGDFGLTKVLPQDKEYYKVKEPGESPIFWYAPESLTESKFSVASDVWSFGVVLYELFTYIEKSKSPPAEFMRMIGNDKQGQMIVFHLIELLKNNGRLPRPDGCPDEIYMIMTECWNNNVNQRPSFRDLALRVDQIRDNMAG
Proto-oncogene tyrosine-protein kinase Src, sequence (P12931 2-536 limits assumed): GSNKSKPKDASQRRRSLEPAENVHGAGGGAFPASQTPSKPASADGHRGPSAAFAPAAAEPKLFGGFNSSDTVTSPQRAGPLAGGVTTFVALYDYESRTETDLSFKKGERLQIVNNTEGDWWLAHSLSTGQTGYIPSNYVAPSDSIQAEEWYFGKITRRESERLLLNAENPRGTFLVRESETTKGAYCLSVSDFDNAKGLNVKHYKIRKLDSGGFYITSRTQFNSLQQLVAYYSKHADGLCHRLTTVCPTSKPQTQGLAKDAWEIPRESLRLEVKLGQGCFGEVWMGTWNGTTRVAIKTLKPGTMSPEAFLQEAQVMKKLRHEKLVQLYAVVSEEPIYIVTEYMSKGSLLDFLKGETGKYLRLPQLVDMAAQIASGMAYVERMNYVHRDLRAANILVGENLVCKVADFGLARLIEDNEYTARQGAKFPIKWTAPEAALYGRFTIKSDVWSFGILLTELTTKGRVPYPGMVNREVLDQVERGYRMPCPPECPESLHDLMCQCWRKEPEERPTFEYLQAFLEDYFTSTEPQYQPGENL
BDNF/NT-3 growth factors receptor, sequence (Q16620 whole entry): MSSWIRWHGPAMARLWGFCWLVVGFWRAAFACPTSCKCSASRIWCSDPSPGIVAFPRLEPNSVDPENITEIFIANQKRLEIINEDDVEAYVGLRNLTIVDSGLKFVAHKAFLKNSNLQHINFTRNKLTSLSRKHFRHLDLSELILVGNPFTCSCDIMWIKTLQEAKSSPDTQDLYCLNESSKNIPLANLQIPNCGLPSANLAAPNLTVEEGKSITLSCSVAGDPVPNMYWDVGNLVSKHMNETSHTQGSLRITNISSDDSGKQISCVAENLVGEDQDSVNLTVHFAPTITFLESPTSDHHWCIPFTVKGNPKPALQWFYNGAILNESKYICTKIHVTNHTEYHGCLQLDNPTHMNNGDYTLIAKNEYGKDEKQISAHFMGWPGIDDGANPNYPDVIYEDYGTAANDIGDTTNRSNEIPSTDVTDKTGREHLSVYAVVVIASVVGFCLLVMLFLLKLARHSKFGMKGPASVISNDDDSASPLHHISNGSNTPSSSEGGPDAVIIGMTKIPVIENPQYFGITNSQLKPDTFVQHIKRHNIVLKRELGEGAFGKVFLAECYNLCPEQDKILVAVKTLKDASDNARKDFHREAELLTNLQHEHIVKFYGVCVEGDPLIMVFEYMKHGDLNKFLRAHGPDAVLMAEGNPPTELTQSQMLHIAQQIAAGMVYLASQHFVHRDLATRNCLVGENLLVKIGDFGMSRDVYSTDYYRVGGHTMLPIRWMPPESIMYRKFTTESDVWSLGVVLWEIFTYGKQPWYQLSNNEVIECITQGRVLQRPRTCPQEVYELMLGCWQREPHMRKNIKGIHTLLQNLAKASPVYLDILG
Description for KM12: Cytotoxicity against human KM12 cells assessed as inhibition of cell viability incubated for 72 hrs by resazurin based analysis

Take `CN(C)c1cccc(-c2cnc(N)c(NCc3cccc(-c4ccccc4)c3)n2)c1`: the inhibition in [1] was found to be 42%; in assay [2] it was 5%.

With `CC(Nc1nc(-c2ccccc2)cnc1N)c1ccccc1` (racemic), the inhibition in assay [1] was determined as 38%; in [2], 2%.

`CN(C)c1cccc(-c2cnc(N)c(NCc3cccc(C(F)(F)F)c3)n2)c1`: the inhibition in assay [1] was 28%; in assay [2], 4%.

Turning to `Cc1ccc(C(C)Nc2nc(-c3cccc(N(C)C)c3)cnc2N)cc1` (racemic), the figures for the inhibition in assay [1] and in assay [2] were 11% and 10%, respectively.

Compound `CC(Nc1nc(-c2cccc(O)c2)cnc1N)c1ccccc1` (racemic) came in with an inhibition in assay [2] of 0%.

As for `Cc1cccc(CNc2nc(-c3cccc(N(C)C)c3)cnc2N)c1`, the figures for the inhibition in assay [1] and in assay [2] were 26% and 6%, respectively.

For the compound `CC(Nc1nc(-c2cccc(F)c2)cnc1N)c1ccccc1` (racemic), the outcome in assay [3] and in [5] was Active. Besides, the Activity result in [4] is “Dose-dependent-effect”. In [2], this compound came in with an inhibition of 3%.

`Nc1ncc(-c2cc(C(F)(F)F)cc(C(F)(F)F)c2)nc1NCc1ccco1`: the Activity result in [6] was “Dose-dependent-effect”. In assay [7], the ΔTm came to 0.9 °C.

As for `Cc1cc(C)cc(-c2cnc(N)c(NC(C)c3ccccc3)n2)c1` (racemic), the inhibition in [2] was 2%.

As for `CC(Nc1nc(-c2cc(Cl)cc(Cl)c2)cnc1N)c1ccccc1` (racemic), the result in assay [3] and in assay [5] was Active. In [4], the Activity result is “Dose-dependent-effect”. In addition, in assay [2], the inhibition came out at 0%.

In turn, `CC(Nc1nc(-c2ccc(-c3ccccc3)cc2)cnc1N)c1ccccc1` (racemic) gave an inhibition in [2] of 0%.

`C[C@H](Nc1nc(-c2cccc(C(=O)N(C)C)c2)cnc1N)c1ccccc1`: the inhibition in assay [8] amounted to 0%; in assay [9], 10%.

For the compound `C[C@@H](Nc1nc(-c2cc(C(F)(F)F)cc(C(F)(F)F)c2)cnc1N)c1ccccc1`, the Activity result in assay [6] was “Dose-dependent-effect”. The ΔTm in assay [7] came to 0.9 °C.

Take `CC(C)Oc1cccc(-c2cnc(N)c(NC(C)c3ccccc3)n2)c1` (racemic): the result in assay [3] and in assay [5] was Active. Also, in assay [4], the Activity entry was “Dose-dependent-effect”. The inhibition in assay [1] amounted to 21%; in assay [2], 2%.

`CC(Nc1nc(-c2ccc(NS(C)(=O)=O)cc2)cnc1N)c1ccccc1` (racemic): the inhibition in assay [1] worked out at 38%; in assay [2] it was 23%.

On to `C[C@@H](Nc1nc(-c2cccc(C(=O)N(C)C)c2)cnc1N)c1ccccc1`, for which the figures for the inhibition in assay [8] and in [9] were 74% and 34%, respectively.

On to `CN(C)c1cccc(-c2cnc(N)c(NCc3cccnc3)n2)c1`, for which the pIC50 in the assay on KM12 is 5.43. Moreover, the inhibition came out at 50% in [1] and 31% in [2].

As for `CC(Nc1nc(-c2cccc(N(C)C)c2)cnc1N)c1ccc(S(C)(=O)=O)cc1` (racemic), the values for the inhibition in [1] and in [2] were 46% and 4%, respectively.

In the assay on KM12, `CC(Nc1nc(-c2cccc(C(=O)N(C)C)c2)cnc1N)c1ccccc1` (racemic) showed a negative logarithm of the IC50 (pIC50) greater than 6.52. Also, the inhibition in assay [1] worked out at 67%; in [2], 41%.

Take `C[C@H](Nc1nc(-c2cc(C(F)(F)F)cc(C(F)(F)F)c2)cnc1N)c1ccccc1`: the Activity result in assay [6] was “Dose-dependent-effect”. The ΔTm in [7] amounted to 0.9 °C.

Consider `COc1ccc(C(C)Nc2nc(-c3cccc(N(C)C)c3)cnc2N)cc1` (racemic), for which the inhibition in assay [1] stood at 17%; in assay [2], 7%.

For the compound `COC(=O)c1ccc(-c2cnc(N)c(NC(C)c3ccccc3)n2)cc1` (racemic), in assay [2], the inhibition turned out to be 36%.

With `Cc1ccc(CNc2nc(-c3cccc(N(C)C)c3)cnc2N)cc1C`, the inhibition in [1] was 35%; in assay [2] it was 6%.

For `C[C@@H](Nc1nc(-c2cccc(N(C)C)c2)cnc1N)c1ccccc1`, the negative logarithm of the IC50 (pIC50) in assay [10] was 6.28; in the assay on LS174T, less than 5.00; with KM12 it was greater than 6.52; in the assay with MDA-MB-231, less than 5.00; in [11], 5.95.

In the case of `COc1cccc(OC)c1-c1cnc(N)c(NC(C)c2ccccc2)n1` (racemic), the outcome in assay [3] and in assay [5] was Active. The Activity entry in assay [4] is “Dose-dependent-effect”. This compound also gave an inhibition in [2] of 0%.

In assay [2], `CC(Nc1nc(-c2cccc3ccccc23)cnc1N)c1ccccc1` (racemic) gave an inhibition of 14%.

Consider `CC(Nc1nc(-c2cccc(N(C)C)c2)cnc1N)c1cccc(C(F)(F)F)c1` (racemic), for which the inhibition in [1] worked out at 44%; in assay [2], 11%.

On to `CC(Nc1nc(-c2cc(C(F)(F)F)cc(C(F)(F)F)c2)cnc1N)c1ccccc1` (racemic), for which, in [4], the Activity result is “Dose-dependent-effect”. Also, in assay [5], the result was Active. The values for the inhibition in assay [12], in [1] and in assay [2] were 40%, 10% and 4%, respectively. In the assay with KM12, this compound showed a negative-log IC50 (pIC50) of 5.28.

Regarding `O=C(Nc1cnn2ccc(N3CCC[C@@H]3c3cc(F)ccc3F)nc12)N1CC[C@H](O)C1` [LAROTRECTINIB], the pIC50 in the assay on LS174T was less than 5.00; with KM12 it was 8.42; in the assay on MDA-MB-231, less than 5.00.

Take `CC(=O)Nc1cccc(-c2cnc(N)c(NC(C)c3ccccc3)n2)c1` (racemic): the results for the negative logarithm of the IC50 (pIC50) in assay [10] and in assay [11] were 6.44 and 5.81, respectively. Moreover, the pKd in [13] is 7.22.

Regarding `CC(Nc1nc(-c2ccc3c(c2)OCO3)cnc1N)c1ccccc1` (racemic), the inhibition in [2] was 14%.

On to `CC(Nc1nc(-c2cccc([N+](=O)[O-])c2)cnc1N)c1ccccc1` (racemic), for which the outcome in assay [3] and in assay [5] was Active. Moreover, the Activity entry in [4] is “Dose-dependent-effect”. Further, the inhibition is 55% in assay [1] and 28% in [2].

As to `COC(=O)c1cccc(-c2cnc(N)c(NC(C)c3ccccc3)n2)c1` (racemic), the result in assay [3] and in assay [5] was Active. Further, in [4], the Activity entry was “Dose-dependent-effect”. The inhibition in assay [1] turned out to be 55%; in assay [2] it was 28%. The compound also gave a negative logarithm of the IC50 (pIC50) in assay [14] of 5.40.

On to `COc1cccc(C(C)Nc2nc(-c3cccc(N(C)C)c3)cnc2N)c1` (racemic), for which the inhibition in assay [1] was determined as 66%; in [2] it was 41%.

Turning to `CN(C)c1cccc(-c2cnc(N)c(NCc3ccccc3)n2)c1`, the inhibition in assay [1] was determined as 79%; in [2], 21%.

Take `CC(Nc1nc(-c2ccc(F)cc2)cnc1N)c1ccccc1` (racemic): the outcome in assay [3] and in assay [5] was Active. For the same compound, the Activity entry in [4] is “Dose-dependent-effect”. The same compound came in with an inhibition in assay [2] of 4%.

For the compound `COC(=O)c1cccc(CNc2nc(-c3cccc(N(C)C)c3)cnc2N)c1`, the inhibition in assay [1] turned out to be 48%; in [2] it was 6%.

For the compound `CN(C)c1cccc(-c2cnc(N)c(NC(c3ccccc3)C(C)(C)C)n2)c1` (racemic), the inhibition in assay [1] was 58%; in assay [2], 11%.

`CCC(Nc1nc(-c2cccc(N(C)C)c2)cnc1N)c1ccccc1` (racemic): the inhibition in [1] came to 73%; in assay [2] it was 24%.

The term inhibition denotes the change of the read-out against control, counted positive when it falls. By ΔTm is commonly meant the shift of the melting midpoint relative to a reference. For orientation: pIC50 means the IC50 on a negative log10 scale, so that one unit is a factor of ten. Broadly, the pKd is the Kd on a negative log10 scale, so that one unit is a factor of ten.
